Source: patent US12662498B2 (priority 2017, dated 2026)

Assay: ICH stability study of psilocybin batches (appearance, water content, purity, assay)
Conditions: for Chemical Purity By HPLC / Total Impurities / Water content by loss on drying: listed as GM764B

For `CN(C)CCc1c[nH]c2cccc(OP(=O)(O)O)c12` [Batch GM764B], the Appearance (T = 0) was “An off white solid”, the “Assay by 1H-NMR” value (T = 0) was 97% ^w/w % w/w and the “Impurities by HPLC: RRT 0.86” value (T = 0) was 0.05%. For the same molecule, the “Impurities by HPLC: RRT 1.46” value (T = 0) was 0.05%, the “Impurities by HPLC: RRT 1.59 (Psilocin)” value (T = 0) was 0.37% and the “Chemical Purity By HPLC” value (T = 0) was 99.24%. For the same molecule, the “Total Impurities” value (T = 0) was 0.76%, the “Water content by loss on drying” value (T = 0) was 0.86% ^w/w % w/w and the Appearance (T = 1 month, 2-8° C.) was “An off white solid”. For the same molecule, the “Assay by 1H-NMR” value (T = 1 month, 2-8° C.) was 99% ^w/w % w/w, the “Impurities by HPLC: RRT 0.86” value (T = 1 month, 2-8° C.) was 0.05% and the “Impurities by HPLC: RRT 1.46” value (T = 1 month, 2-8° C.) was 0.09%. The “Impurities by HPLC: RRT 1.59 (Psilocin)” value (T = 1 month, 2-8° C.) was 0.35%, the “Chemical Purity By HPLC” value (T = 1 month, 2-8° C.) was 99.24% and the “Total Impurities” value (T = 1 month, 2-8° C.) was 0.76%. The “Water content by loss on drying” value (T = 1 month, 2-8° C.) was 0.35% ^w/w % w/w, the Appearance (T = 1 month, 25° C./60% RH) was “An off white solid” and the “Assay by 1H-NMR” value (T = 1 month, 25° C./60% RH) was 98% ^w/w % w/w. The “Impurities by HPLC: RRT 0.86” value (T = 1 month, 25° C./60% RH) was 0.05%, the “Impurities by HPLC: RRT 1.46” value (T = 1 month, 25° C./60% RH) was 0.10% and the “Impurities by HPLC: RRT 1.59 (Psilocin)” value (T = 1 month, 25° C./60% RH) was 0.34%. The “Chemical Purity By HPLC” value (T = 1 month, 25° C./60% RH) was 99.22%, the “Total Impurities” value (T = 1 month, 25° C./60% RH) was 0.78% and the “Water content by loss on drying” value (T = 1 month, 25° C./60% RH) was 0.20% ^w/w % w/w. For the same molecule, the Appearance (T = 1 month, 40° C./75% RH) was “An off white solid”, the “Assay by 1H-NMR” value (T = 1 month, 40° C./75% RH) was 96% ^w/w % w/w and the “Impurities by HPLC: RRT 0.86” value (T = 1 month, 40° C./75% RH) was 0.05%. The “Impurities by HPLC: RRT 1.46” value (T = 1 month, 40° C./75% RH) was 0.10%, the “Impurities by HPLC: RRT 1.59 (Psilocin)” value (T = 1 month, 40° C./75% RH) was 0.34% and the “Chemical Purity By HPLC” value (T = 1 month, 40° C./75% RH) was 99.23%. The “Total Impurities” value (T = 1 month, 40° C./75% RH) was 0.77%, the “Water content by loss on drying” value (T = 1 month, 40° C./75% RH) was 0.14% ^w/w % w/w and the Appearance (T = 3 months, 2-8° C.) was “An off white solid”. The “Assay by 1H-NMR” value (T = 3 months, 2-8° C.) was 97% ^w/w % w/w, the “Impurities by HPLC: RRT 0.86” value (T = 3 months, 2-8° C.) was < 0.05% and the “Impurities by HPLC: RRT 1.46” value (T = 3 months, 2-8° C.) was 0.10%. For the same molecule, the “Impurities by HPLC: RRT 1.59 (Psilocin)” value (T = 3 months, 2-8° C.) was 0.37%, the “Chemical Purity By HPLC” value (T = 3 months, 2-8° C.) was 99.31% and the “Total Impurities” value (T = 3 months, 2-8° C.) was 0.69%. The “Water content by loss on drying” value (T = 3 months, 2-8° C.) was 0.26% ^w/w % w/w, the Appearance (T = 3 months, 25° C./60% RH) was “An off white solid” and the “Assay by 1H-NMR” value (T = 3 months, 25° C./60% RH) was 99% ^w/w % w/w. The “Impurities by HPLC: RRT 0.86” value (T = 3 months, 25° C./60% RH) was < 0.05%, the “Impurities by HPLC: RRT 1.46” value (T = 3 months, 25° C./60% RH) was 0.09% and the “Impurities by HPLC: RRT 1.59 (Psilocin)” value (T = 3 months, 25° C./60% RH) was 0.36%. The “Chemical Purity By HPLC” value (T = 3 months, 25° C./60% RH) was 99.27%, the “Total Impurities” value (T = 3 months, 25° C./60% RH) was 0.73% and the “Water content by loss on drying” value (T = 3 months, 25° C./60% RH) was 0.08% ^w/w % w/w. The Appearance (T = 3 months, 40° C./75% RH) was “An off white solid”, the “Assay by 1H-NMR” value (T = 3 months, 40° C./75% RH) was 97% ^w/w % w/w and the “Impurities by HPLC: RRT 0.86” value (T = 3 months, 40° C./75% RH) was < 0.05%. For the same molecule, the “Impurities by HPLC: RRT 1.46” value (T = 3 months, 40° C./75% RH) was 0.10%, the “Impurities by HPLC: RRT 1.59 (Psilocin)” value (T = 3 months, 40° C./75% RH) was 0.37% and the “Chemical Purity By HPLC” value (T = 3 months, 40° C./75% RH) was 99.26%. The “Total Impurities” value (T = 3 months, 40° C./75% RH) was 0.74% and the “Water content by loss on drying” value (T = 3 months, 40° C./75% RH) was 0.14% ^w/w % w/w.
